The record followed here is US20240166643A1, “IMIDAZO[1,2-A]PYRIDINE COMPOUNDS AND THEIR USE IN THERAPY” (Imperial College Innovations Limited, priority 2020, published 2024).

Assay [1] has as its target Human NMT1 (HsNMT1) (Homo sapiens, UniProt P30419). The assay can be described thus: biochemical.
Assay [2] deals with Plasmodium vivax (Pv) NMT (Plasmodium vivax (strain Salvador I), UniProt A5K1A2). The assay can be described thus: biochemical.
Assay [3] relates to Plasmodium falciparum 3D7. The assay can be described thus: SYBR Green assay, Plasmodium falciparum strain 3D7. Format: cell-based. To be noted: P. falciparum strain 3D7, 96 h incubation, read-out: Pf EC50 strain 3D7.

A value given as a limit tells only on which side of the number the result lay.

Human NMT1 (HsNMT1), sequence (P30419 whole entry, looked up): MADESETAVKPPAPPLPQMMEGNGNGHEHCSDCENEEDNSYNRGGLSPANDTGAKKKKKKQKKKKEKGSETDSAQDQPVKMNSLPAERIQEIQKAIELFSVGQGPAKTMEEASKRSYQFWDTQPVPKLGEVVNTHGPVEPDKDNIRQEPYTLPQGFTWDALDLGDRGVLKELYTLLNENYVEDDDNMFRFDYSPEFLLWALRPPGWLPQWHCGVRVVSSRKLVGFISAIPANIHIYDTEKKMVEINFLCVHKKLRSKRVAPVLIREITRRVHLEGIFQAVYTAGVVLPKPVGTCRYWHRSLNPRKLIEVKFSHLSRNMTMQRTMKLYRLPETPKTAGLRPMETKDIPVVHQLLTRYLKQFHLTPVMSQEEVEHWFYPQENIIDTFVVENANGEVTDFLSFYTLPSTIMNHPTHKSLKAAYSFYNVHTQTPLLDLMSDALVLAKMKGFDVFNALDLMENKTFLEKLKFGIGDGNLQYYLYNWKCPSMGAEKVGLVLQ
Plasmodium vivax (Pv) NMT, sequence (A5K1A2 1-410): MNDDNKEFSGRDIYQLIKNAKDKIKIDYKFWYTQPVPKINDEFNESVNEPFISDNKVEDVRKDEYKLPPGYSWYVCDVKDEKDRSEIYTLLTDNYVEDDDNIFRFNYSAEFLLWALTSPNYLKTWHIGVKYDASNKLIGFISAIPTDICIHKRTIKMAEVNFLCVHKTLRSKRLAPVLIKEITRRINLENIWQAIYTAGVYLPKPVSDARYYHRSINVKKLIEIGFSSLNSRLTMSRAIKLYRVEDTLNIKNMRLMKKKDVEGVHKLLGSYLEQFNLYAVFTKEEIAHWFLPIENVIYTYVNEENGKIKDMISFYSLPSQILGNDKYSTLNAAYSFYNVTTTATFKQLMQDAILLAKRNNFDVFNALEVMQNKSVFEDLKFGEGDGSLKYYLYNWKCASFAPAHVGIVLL

Consider `CC(NC(=O)C1CN(c2nc(N3CCNCC3)ncc2Cl)C1)c1cnc2ccccn12` (stereo not shown) [Example 30], for which the values for the IC50 in assay [1] and in assay [2] were 26 nM and 8.5 nM, respectively. Besides, the EC50 in assay [3] amounted to 960 nM. For `CC1CN(c2ncc(F)c(N3CC(C(=O)NC(C)(C)c4cnc5ccccn45)C3)n2)C[C@@H](C)N1` (stereo partly shown) [Example 47] the same measures were 43 nM, 12.2 nM and 140 nM. In the case of `CC1CN(c2ncc(Cl)c(N3CC(C(=O)NC(C)(C)c4cnc5ccccn45)C3)n2)C[C@@H](C)N1` (stereo partly shown) [Example 46], the concentration for a half-maximal effect (EC50) in assay [3] amounted to 57 nM.

In assay [1], `CN(C(=O)C1CN(c2nc(N3CCC(N)CC3)ncc2Cl)C1)C(C)(C)c1cnc2ccccn12` [Example 128, 1-(2-(4-aminopiperidin-1-yl)-5-chloropyrimidin-4-yl)-N-(2-(Imidazo[1,2-a]pyridin-3-yl)propan-2-yl)-N-methylazetidine-3-carboxamide] registered an IC50 of 234 nM.

`COc1cnc(N2CCN(C)CC2)nc1N1CC(C(=O)NC(C)(C)c2cnc3ccccn23)C1` [Example 63] showed an IC50 in assay [2] of 71 nM. In addition, the EC50 in assay [3] was found to be 180 nM. In assay [1], `CC(C)(NC(=O)C1CN(c2nc(N3CCCNCC3)nc3ccsc23)C1)c1cnc2ccccn12` [Example 123, 1-(2-(1,4-diazepan-1-yl)thieno[3,2-d]pyrimidin-4-yl)-N-(2-(Imidazo[1,2-a]pyridin-3-yl)propan-2-yl)azetidine-3-carboxamide] displayed an IC50 of 8 nM.

Take `COc1cnc(N2CCNCC2)nc1N1CC(C(=O)NC(C)(C)c2cnc3ccccn23)C1` [Example 34]: the IC50 in assay [2] amounted to 9.1 nM. In addition, the EC50 in assay [3] came out at 140 nM. As for `C[C@H]1CN(c2ncc(Cl)c(N3CC(C(=O)N(C)C(C)(C)c4cnc5ccccn45)C3)n2)CCN1C` [Example 140, (S)-1-(5-chloro-2-(3,4-dimethylpiperazin-1-yl)pyrimidin-4-yl)-N-(2-(imidazo[1,2-a]pyridin-3-yl)propan-2-yl)-N-methylazetidine-3-carboxamide], in assay [1], the IC50 worked out at 146 nM. The molecule `CN(C(=O)C1CN(c2nc(N3CCCC(N)CC3)ncc2Cl)C1)C(C)(C)c1cnc2ccccn12` (stereo not shown) [Example 131, 1-(2-(4-aminoazepan-1-yl)-5-chloropyrimidin-4-yl)-N-(2-(imidazo[1,2-a]pyridin-3-yl)propan-2-yl)-N-methylazetidine-3-carboxamide] had an IC50 in assay [1] of 179 nM. `C[C@@H]1CN(c2ncc(Cl)c(N3CC(C(=O)NC(C)(C)c4cnc5ccccn45)C3)n2)[C@@H](C)CN1C` [Example 109, 1-{5-chloro-2-[(2S,5R)-2,4,5-trimethylpiperazin-1-yl]pyrimidin-4-yl}-N-(2-{imidazo[1,2-a]pyridin-3-yl}propan-2-yl)azetidine-3-carboxamide]: the half-maximal effective concentration (EC50) in assay [3] was 120 nM. Same read-out and setting: to `CC1NCCN(c2ncc(Cl)c(N3CC(C(=O)NC(C)(C)c4cnc5ccccn45)C3)n2)C1C` (stereo not shown) [Example 79] belongs 2.2 nM; to `CN1CCN(c2cc(N3CC(C(=O)NC(C)(C)c4cnc5ccccn45)C3)c(Cl)cn2)CC1` [Example 105, 1-[5-chloro-2-(4-methylpiperazin-1-yl)pyridin-4-yl]-N-(2-{imidazo[1,2-a]pyridin-3-yl}propan-2-yl)azetidine-3-carboxamide], 18 nM; to `COc1cnc(N2C[C@@H](C)N(C)[C@H](C)C2)nc1N1CC(C(=O)NC(C)(C)c2cnc3ccccn23)C1` [Example 91, N-(2-{imidazo[1,2-a]pyridin-3-yl}propan-2-yl)-1-{5-methoxy-2-[(3R,5R)-3,4,5-trimethylpiperazin-1-yl]pyrimidin-4-yl}azetidine-3-carboxamide], 230 nM. Molecule `O=C(NCc1cnc2ccccn12)C1CN(c2nc(N3CCCNCC3)ncc2Cl)C1` [Example 5] came in with an IC50 in assay [2] of 14 nM. Further, the EC50 in assay [3] turned out to be 2500 nM. For `CC(C)(NC(=O)C1CN(c2nc(N3CCNCC3)ncc2F)C1)c1cnc2ccccn12` [Example 32] the same measures were 9.1 nM and 64 nM. Turning to `C[C@@H]1CN(c2ncc(F)c(N3CC(C(=O)NC(C)(C)c4cnc5ccccn45)C3)n2)[C@@H](C)CN1C` [Example 111, 1-{5-fluoro-2-[(2S,5R)-2,4,5-trimethylpiperazin-1-yl]pyrimidin-4-yl}-N-(2-{imidazo[1,2-a]pyridin-3-yl}propan-2-yl)azetidine-3-carboxamide], the EC50 in assay [3] was 450 nM. On the same count and under the same terms, as for `C[C@@H]1CN(c2cc(N3CC(C(=O)NC(C)(C)c4cnc5ccccn45)C3)c(F)cn2)CCN1C` [Example 104, 1-{2-[(3R)-3,4-dimethylpiperazin-1-yl]-5-fluoropyridin-4-yl}-N-(2-{imidazo[1,2-a]pyridin-3-yl}propan-2-yl)azetidine-3-carboxamide], the figure is 35 nM.

`C[C@H]1CN(c2ncc(Cl)c(N3CC(C(=O)NC(C)(C)c4cnc5ccccn45)C3)n2)CCN1C` [Example 83, 1-{5-chloro-2-[(3S)-3,4-dimethylpiperazin-1-yl]pyrimidin-4-yl}-N-(2-{imidazo[1,2-a]pyridin-3-yl}propan-2-yl)azetidine-3-carboxamide] displayed an IC50 in assay [2] of 10 nM. Moreover, in assay [3], the EC50 is 150 nM. For `C[C@H]1CN(C)CCN1c1ncc(Cl)c(N2CC(C(=O)N(C)Cc3cnc4ccccn34)C2)n1` [Example 106, 1-{5-chloro-2-[(2S)-2,4-dimethylpiperazin-1-yl]pyrimidin-4-yl}-N-{imidazo[1,2-a]pyridin-3-ylmethyl}-N-methylazetidine-3-carboxamide], the EC50 in assay [3] was more than 1000 nM.

`C[C@@H]1CN(c2cc(N3CC(C(=O)NC(C)(C)c4cnc5ccccn45)C3)c(Cl)cn2)CCN1C` [Example 103, 1-{5-chloro-2-[(3R)-3,4-dimethylpiperazin-1-yl]pyridin-4-yl}-N-(2-{imidazo[1,2-a]pyridin-3-yl}propan-2-yl)azetidine-3-carboxamide]: the EC50 in assay [3] came to 5.3 nM. On to `CN(C(=O)C1CN(c2nc(N3CC4CC3CN4)ncc2Cl)C1)C(C)(C)c1cnc2ccccn12` (stereo not shown) [Example 132, 1-(2-(2,5-diazabicyclo[2.2.1]heptan-2-yl)-5-chloropyrimidin-4-yl)-N-(2-(imidazo[1,2-a]pyridin-3-yl)propan-2-yl)-N-methylazetidine-3-carboxamide], for which inhibition in assay [1] was half-maximal at 190 nM (IC50). `C[C@H]1CN(c2ncc(F)c(N3CC(C(=O)NC(C)(C)c4cnc5ccccn45)C3)n2)CCN1` [Example 38] registered an IC50 in assay [2] of 14 nM. Moreover, the EC50 in assay [3] came out at 150 nM. Take `COc1cnc(N2C[C@H](C)N(C)[C@@H](C)C2)nc1N1CC(C(=O)NC(C)(C)c2cnc3ccccn23)C1` [Example 94, N-(2-{imidazo[1,2-a]pyridin-3-yl}propan-2-yl)-1-{5-methoxy-2-[(3S,5S)-3,4,5-trimethylpiperazin-1-yl]pyrimidin-4-yl}azetidine-3-carboxamide]: the EC50 in assay [3] is 440 nM. Still for that read-out and setting: to `C[C@@H]1CN(c2ncc(Cl)c(N3CC(C(=O)NC(C)(C)c4cnc5ccccn45)C3)n2)[C@H](C)CN1C` [Example 110, 1-{5-chloro-2-[(2R,5R)-2,4,5-trimethylpiperazin-1-yl]pyrimidin-4-yl}-N-(2-{imidazo[1,2-a]pyridin-3-yl}propan-2-yl)azetidine-3-carboxamide] belongs 66 nM.

By IC50 is commonly meant the concentration that inhibits the measured activity by half. By EC50 is commonly meant the concentration needed to bring the measured effect to its halfway point.
